Measurements reported in ChEMBL document CHEMBL5344449, “Retinestatin, a Polyol Polyketide from a Termite Nest-Derived Streptomyces sp” (2024).
Active and inactive are the calls of the source. The calls are words filed in the database; no cut-off is given here.

Assays:
[1] = tested on: Staphylococcus aureus; experiment: Antibacterial activity against Staphylococcus aureus ATCC 25923 assessed as reduction in bacterial growth incubated for 24 hrs by CLSI protocol based analysis; assay type: functional
[2] = tested on: Salmonella enterica; experiment: Antibacterial activity against Salmonella enterica ATCC 14028 assessed as reduction in bacterial growth after 24 hrs by CLSI protocol based analysis; assay type: functional
[3] = tested on: SH-SY5Y; experiment: Neuroprotective activity against MPP-induced cytotoxicity in human SH-SY5Y cells assessed as decrease in Bak mRNA expression level at 10 umol/L by RT-qPCR analysis; assay type: functional, cell-based; conditions: dose 10.0 µmol/L
[4] = tested on: Klebsiella pneumoniae; experiment: Antibacterial activity against Klebsiella pneumoniae ATCC 10031 assessed as reduction in bacterial growth after 24 hrs by CLSI protocol based analysis; assay type: functional
[5] = tested on: Enterococcus faecium; experiment: Antibacterial activity against Enterococcus faecium ATCC 19434 assessed as reduction in bacterial growth after 24 hrs by CLSI protocol based analysis; assay type: functional
[6] = tested on: Trichophyton rubrum; experiment: Antifungal activity against Trichophyton rubrum NBRC 9185 assessed as inhibition of fungal growth incubated for 96 hrs by CLSI protocol based analysis; assay type: functional
[7] = tested on: SH-SY5Y; experiment: Neuroprotective activity against MPP-induced cytotoxicity in human SH-SY5Y cells assessed as increase in Bcl-xL mRNA expression level at 10 umol/L by RT-qPCR analysis; assay type: functional, cell-based; conditions: dose 10.0 µmol/L
[8] = tested on: Enterococcus faecalis; experiment: Antibacterial activity against Enterococcus faecalis ATCC 19433 assessed as reduction in bacterial growth after 24 hrs by CLSI protocol based analysis; assay type: functional
[9] = tested on: SH-SY5Y; experiment: Neuroprotective activity against MPP-induced cytotoxicity in human SH-SY5Y cells assessed as decrease in cell death at 10 umol/L preincubated with compound for 24 hrs followed by MPP addition and measured after 24 hrs by MTT assay; assay type: functional, cell-based; conditions: dose 10.0 µmol/L, time 48.0 hrs
[10] = tested on: Escherichia coli; experiment: Antibacterial activity against Escherichia coli ATCC 25922 assessed as reduction in bacterial growth after 24 hrs by CLSI protocol based analysis; assay type: functional
[11] = tested on: Trichophyton mentagrophytes; experiment: Antifungal activity against Trichophyton mentagrophytes IFM 40996 assessed as inhibition of fungal growth incubated for 96 hrs by CLSI protocol based analysis; assay type: functional
[12] = tested on: Candida albicans; experiment: Antifungal activity against Candida albicans ATCC 10231 assessed as reduction in fungal growth incubated for 24 hrs by CLSI protocol based analysis; assay type: functional
[13] = tested on: Staphylococcus aureus; experiment: Antibacterial activity against methicillin-resistant Staphylococcus aureus ATCC 43300 assessed as reduction in bacterial growth incubated for 24 hrs by CLSI protocol based analysis; assay type: functional
[14] = tested on: Mycobacterium tuberculosis; experiment: Antitubercular activity against wild type Mycobacterium tuberculosis mc2 6230 assessed as bacterial growth inhibition incubated for 5 days by resazurin microtiter assay; assay type: functional; conditions: mc2 6230, 120 h, time 5 day
[15] = tested on: Aspergillus fumigatus; experiment: Antifungal activity against Aspergillus fumigatus HIC 6094 assessed as inhibition of fungal growth incubated for 48 hrs by CLSI protocol based analysis; assay type: functional

CCC/C=C/C=C/C=C/[C@@H](O)C[C@]1(O)O[C@H](C[C@H](O)[C@@H](O)[C@H](O)[C@H]2OC(=O)[C@@H](C)[C@@H]2O)[C@@H](O)[C@H](O)[C@@H]1O
MIC [1]: > 128 µg/mL
MIC [2]: > 128 µg/mL
Activity [3]: Active
MIC [4]: > 128 µg/mL
MIC [5]: > 128 µg/mL
MIC [6]: > 128 µg/mL
Activity [7]: Active
MIC [8]: > 128 µg/mL
Activity [9]: Active
MIC [10]: > 128 µg/mL
MIC [11]: > 128 µg/mL
MIC [12]: > 128 µg/mL
MIC [13]: > 128 µg/mL
MIC [14]: > 128 µg/mL
MIC [15]: > 128 µg/mL
